Like-named read-outs stand apart in the source and are kept apart here.
Columns and labels:
[1] = Canine pharmacokinetics; format: in vivo, Beagle dogs; conditions: male, beagle, plasma, dog, mean
Protocol: To evaluate the pharmacokinetics (PK) Phosphate Polymorphic Form A, suspensions or solutions were dosed by either oral gavage (0.5% methyl cellulose) or IV (60% PEG400/40% saline) in normal, healthy, male Beagle dogs with serial blood collection focused on the first 48 hours of exposure. Dogs were dosed with vehicle or test compounds at 1 mg/kg (IV) or 2 mg/kg (PO). Approximately 0.5 mL blood was collected at each time point. All blood samples were collected from a peripheral vein. Blood was collected into commercially available tubes (Jiangsu Kangjian medical supplies co., LTD) containing Potassium (K2) EDTA*2H2O and placed on wet ice until processed for plasma. Samples were centrifuged (3,000×g for 10 minutes at 2 to 8° C.) within one hour of collection. The extracts were analyzed for compound concentration by LC/MS/MS. Data were analyzed with Phoenix WinNonlin 6.3 using the IV-Noncompartmental model 201 (IV bolus input) and PO-Noncompartmental model 200 (extravascular input) methods.

[2] = Accelerated stability testing (HPLC assay and purity); format: physicochemical; conditions: for Assay (%): assay criterion 95%-105%
Protocol: The stability of Phosphate Polymorphic Form and Free Base Polymorphic Form A were evaluated under accelerated conditions.
Appropriately 2 mg of compounds were accurately weighed into a glass vial, then added diluents (ACN/water, 50/50) and sonicated for 2 minutes to dilute the target concentration of 0.2 mg/mL. The solution was equilibrated to room temperature and then the purity of the compounds was determined by HPLC.

[3] = Pharmacokinetics in rats; format: in vivo, Sprague-dawley rats; conditions: rat, mean
Protocol: To evaluate the pharmacokinetics (PK) of Phosphate Polymorphic Form A, suspensions or solutions were dosed by either oral gavage (0.5% methyl cellulose) or IV (60% PEG400/40% saline) in normal, healthy, male Sprague-dawley rats with serial blood collection focused on the first 48 hours of exposure. Rats were dosed with vehicle or test compounds at 1 mg/kg (IV) or 2 mg/kg (PO). Approximately 0.2 mL blood was collected at each time point. All blood samples were collected jugular vein puncture. All blood samples were transferred into plastic microcentrifuge tubes containing 5 μL of EDTA-K2 as anti-coagulant or pre-chilled commercial EDTA-K2 tubes and placed on wet ice until centrifugation. Harvested blood samples were centrifuged within 30 min of collection at 7,000 rpm for 10 minutes. The extracts were analyzed for compound concentration by LC/MS/MS. Data were analyzed with Phoenix WinNonlin 6.3 using the IV-Noncompartmental model 201 (IV bolus input) and PO-Noncompartmental model 200 (extravascular input) methods.

[4] = Approximate solubility of TPA023B Phosphate in solvents (stepwise solvent addition); format: physicochemical; conditions: thermodynamic from solid
Protocol: The total amount of solvent was recorded to calculate the approximate solubility in these solvents.

[5] = Hygroscopicity by dynamic vapor sorption (DVS); format: physicochemical
Protocol: The hygroscopicity of Phosphate Polymorph Form A was measured by Dynamic vapor sorption (DVS). […] After DVS, XRPD confirmed that the crystalline form was retained (see FIG. 19).

[6] = Solubility in aqueous buffers and simulated fluids, 24 h, HPLC; format: physicochemical; conditions: for solubility at 24 h: 22.5 °C, thermodynamic from solid, read-out: Measured Conc. (solubility); for solubility at 24 h / Measured Conc. (solubility): ~24 h
Protocol: About 2 mg of test article was added to a 1.5 mL vials which contained ˜1.0 mL of one medium listed in Table 7 and Table 8, which was then sealed. The mixtures were stirred at ˜20-25° C. for ˜24 hours. After that, the mixture was filtered by 0.45 μm filter membrane and then the supernatant was analyzed by HPLC.

[7] = male, Sprague-Dawley, plasma, IV 1 mg/kg
[8] = male, Sprague-Dawley, plasma, PO 2 mg/kg

AUC(0-inf) ([1]; IV 1 mg/kg): 9170 ng·h/mL
AUC(0-t) ([1]; IV 1 mg/kg): 7850 ng·h/mL
clearance ([1]; IV 1 mg/kg): 2.52 mL/min/kg
half-life ([1]; IV 1 mg/kg): 12.8 h
Vd ([1]; IV 1 mg/kg, read-out: Vdss): 1.93 L/kg
AUC(0-inf) ([1]; PO 2 mg/kg): 13900 ng·h/mL
AUC(0-t) ([1]; PO 2 mg/kg): 11700 ng·h/mL
Cmax ([1]; PO 2 mg/kg): 649 ng/mL
Tmax ([1]; PO 2 mg/kg): 3.33 h
bioavailability ([1]; PO 2 mg/kg): 74.7%
half-life ([1]; PO 2 mg/kg): 12.2 h
Purity (%) ([2]; 40° C./75% RH (open), 1 week): 99.02%
Assay (%) ([2]; 40° C./75% RH (open), 1 week): 97.12%
Purity (%) ([2]; 80° C. (open), 1 week): 98.94%
Assay (%) ([2]; 80° C. (open), 1 week): 95.99%
Purity (%) ([2]; Initial): 98.91%
Assay (%) ([2]; Initial): 104.60%
Purity (%) ([2]; Light, ~50 h): 97.55%
Assay (%) ([2]; Light, ~50 h): 95.25%
AUC(0-inf) [3, 7]: 12100 ng·h/mL
AUC(0-t) [3, 7]: 11300 ng·h/mL
clearance [3, 7]: 1.41 mL/min/kg
half-life [3, 7]: 12.4 h
Vd ([3]; male, Sprague-Dawley, plasma, IV 1 mg/kg, read-out: Vdss): 1.49 L/kg
AUC(0-inf) [3, 8]: 16000 ng·h/mL
AUC(0-t) [3, 8]: 15000 ng·h/mL
Cmax [3, 8]: 794 ng/mL
Tmax [3, 8]: 7 h
bioavailability [3, 8]: 66.1%
half-life [3, 8]: 11.1 h
AUCExtra ([3]; PO 2 mg/kg): 6.25%
solubility ([4]; aqueous with cosolvent or surfactant or cyclodextrin, Acetone/H2O (1/1, v/v), 50° C.): 2000 to 10000 µg/mL
solubility ([4]; aqueous with cosolvent or surfactant or cyclodextrin, Acetone/H2O (1/1, v/v), RT): < 2000 µg/mL
solubility ([4]; aqueous with cosolvent or surfactant or cyclodextrin, EtOH/H2O (1/1, v/v), 50° C.): < 2000 µg/mL
solubility ([4]; aqueous with cosolvent or surfactant or cyclodextrin, EtOH/H2O (1/1, v/v), RT): < 2000 µg/mL
solubility ([4]; organic solvent or mixture, 1,4-Dioxane, 50° C.): 20000 to 25000 µg/mL
solubility ([4]; organic solvent or mixture, 1,4-Dioxane, RT): 20000 to 25000 µg/mL
solubility ([4]; organic solvent or mixture, Acetone, 50° C.): < 10000 µg/mL
solubility ([4]; organic solvent or mixture, Acetone, RT): 6000 to 10000 µg/mL
solubility ([4]; organic solvent or mixture, Acetonitrile (ACN), 50° C.): 2000 to 10000 µg/mL
solubility ([4]; organic solvent or mixture, Acetonitrile (ACN), RT): < 2000 µg/mL
solubility ([4]; organic solvent or mixture, DCM, 50° C.): 10000 to 50000 µg/mL
solubility ([4]; organic solvent or mixture, DCM, RT): 8000 to 10000 µg/mL
solubility ([4]; organic solvent or mixture, DMF, RT): > 100000 µg/mL
solubility ([4]; organic solvent or mixture, DMSO, RT): > 100000 µg/mL
solubility ([4]; organic solvent or mixture, EtOAc, 50° C.): < 2000 µg/mL
solubility ([4]; organic solvent or mixture, EtOAc, RT): < 2000 µg/mL
solubility ([4]; organic solvent or mixture, Ethanol, 50° C.): 10000 to 50000 µg/mL
solubility ([4]; organic solvent or mixture, Ethanol, RT): < 8000 µg/mL
solubility ([4]; organic solvent or mixture, Heptane, 50° C.): < 2000 µg/mL
solubility ([4]; organic solvent or mixture, Heptane, RT): < 2000 µg/mL
solubility ([4]; organic solvent or mixture, Isopropanol, 50° C.): 10000 to 50000 µg/mL
solubility ([4]; organic solvent or mixture, Isopropanol, RT): < 8000 µg/mL
solubility ([4]; organic solvent or mixture, MEK, 50° C.): < 10000 µg/mL
solubility ([4]; organic solvent or mixture, MEK, RT): 2000 to 4000 µg/mL
solubility ([4]; organic solvent or mixture, MTBE, 50° C.): < 2000 µg/mL
solubility ([4]; organic solvent or mixture, MTBE, RT): < 2000 µg/mL
solubility ([4]; organic solvent or mixture, Methanol, 50° C.): 10000 to 50000 µg/mL
solubility ([4]; organic solvent or mixture, Methanol, RT): 8000 to 10000 µg/mL
solubility ([4]; organic solvent or mixture, THF, 50° C.): < 50000 µg/mL
solubility ([4]; organic solvent or mixture, THF, RT): 20000 to 50000 µg/mL
solubility ([4]; organic solvent or mixture, Toluene, 50° C.): < 2000 µg/mL
solubility ([4]; organic solvent or mixture, Toluene, RT): < 2000 µg/mL
solubility ([4]; water, H2O, 50° C.): < 2000 µg/mL
solubility ([4]; water, H2O, RT): < 2000 µg/mL
reversible mass increase (hygroscopicity) [5]: about 1.08%
solubility at 24 h ([6]; aqueous buffer, pH 3.0 citrate buffer (100 mM), initial pH 3.05, LOQ: 0.1 μg/mL): 0.16 µg/mL
solubility at 24 h ([6]; pH 1.8, simulated gastric fluid, SGF, initial pH 1.80, ~20-25° C.): 3.85 µg/mL
solubility at 24 h ([6]; simulated gastric fluid, pH 1.2 Hydrochloric Acid Buffer (50 mM), initial pH 1.17, ~20-25° C.): 22.9 µg/mL
solubility at 24 h ([6]; FaSSIF, initial pH 6.51, ~20-25° C.): 7.14 µg/mL
solubility at 24 h ([6]; FeSSIF, initial pH 5.00, ~20-25° C.): 50.7 µg/mL
solubility at 24 h ([6]; Purified water, initial pH 7.02, ~20-25° C., target 2 mg/mL): 0.4 µg/mL
pH value of supernatant ([6]; FaSSIF, initial pH 6.51): 6.09
pH value of supernatant ([6]; FeSSIF, initial pH 5.00): 4.94
pH value of supernatant ([6]; Purified water, initial pH 7.02): 2.62
pH value of supernatant ([6]; SGF, initial pH 1.80): 1.67
solubility compared with Free Base Polymorphic Form A ([6]; in SGF, FaSSIF and FeSSIF): higher solubility
pH value of supernatant ([6]; pH 1.2 Hydrochloric Acid Buffer (50 mM), initial pH 1.17): 0.99
pH value of supernatant ([6]; pH 3.0 citrate buffer (100 mM), initial pH 3.05): 2.96
pH value of supernatant ([6]; pH 4.5 citrate buffer (100 mM), initial pH 4.44): 4.41
Measured Conc. (solubility) ([6]; pH 4.5 citrate buffer (100 mM), initial pH 4.44, LOQ: 0.1 μg/mL): <LOQ
pH value of supernatant ([6]; pH 7.4 PBS (50 mM), initial pH 7.40): 7.09
Measured Conc. (solubility) ([6]; pH 7.4 PBS (50 mM), initial pH 7.40, LOQ: 0.1 μg/mL): <LOQ
pH value of supernatant ([6]; pH 9.0 USP Buffer (50 mM), initial pH 8.94): 8.46
Measured Conc. (solubility) ([6]; pH 9.0 USP Buffer (50 mM), initial pH 8.94, LOQ: 0.1 μg/mL): <LOQ
Structure (SMILES): CC(C)(O)c1cnn2c(-c3ccc(F)c(-c4c(F)cccc4C#N)c3)cnc2n1.O=P(O)(O)O [Phosphate Polymorphic Form A, 2′,6-difluoro-5′-[3-(1-hydroxy-1-methylethyl)-imidazo[1,2-b][1,2,4]triazin-7-yl]biphenyl-2-carbonitrile]

— US11542263B2 (NeuroCycle Therapeutics, Inc., priority 2018, dated 2023)
